The values that follow come from patent EP1165069B1, “ANTITUMOUR SYNERGISTIC COMPOSITION” (Pharmacia Italia S.p.A., priority 1999, dated 2000).

In the series the test system is disseminated L1210 murine leukemia. Nature of the series: Antileukemic activity against disseminated L1210 murine leukemia (in vivo, iv treatment). On the set-up: species or system mouse. Conditions: for LTS (Long Term Survivors (>60 days) at the end the experiment) / Tox (Number of toxic deaths/number of mice) / ILS% (Increase in life span): combination at the same doses and schedule; for ILS% (Increase in life span): L1210 cells 10^5/mouse iv on day 0. An excerpt:
Combining doxorubicin and Ia at the same doses with the same schedule an increase of activity with ILS% values of 150 was observed, indicating a synergistic effect.
For these experiments Ia was solubilized in [Cremophor® /EtOH= 6.5:3.5]/[normal saline]=20/80 v/v, while standard etoposide pharmaceutical preparation and doxorubicin solubilized in water were used.

Where [1] appears, read: Table 1 experiment: Ia 1 mg/kg/day iv days +1,2, Etoposide 30 mg/kg/day iv day +3.
The mark [2] stands for this setting: Table 2 experiment: Ia 1.5 mg/kg/day iv days +1,2, Doxorubicin 13 mg/kg/day iv day +3.
[3] abbreviates: doxorubicin alone 13 mg/kg day +3, Ia alone 1.5 mg/kg days +1,2.
[4] abbreviates: etoposide alone 30 mg/kg day +3, Ia alone 1 mg/kg days +1,2.

Each structure is given as a SMILES string.

Turning to `CC(=O)[C@]1(O)Cc2c(O)c3c(c(O)c2[C@@H](O[C@H]2C[C@H](N4CC4)[C@H](OS(C)(=O)=O)[C@H](C)O2)C1)C(=O)c1ccccc1C3=O` [Ia, 4-demethoxy-3'-deamino-3'-aziridinyl-4'-methansulfonyl daunorubicin], under setting [1], the “LTS (Long Term Survivors (>60 days) at the end the experiment)” value (from here on “LTS”) is 0/10, the “Tox (Number of toxic deaths/number of mice)” value was 0/10 and the “ILS% (Increase in life span)” value is 67%. Under setting [2], the “LTS” value is reported as 0/10, the “Tox (Number of toxic deaths/number of mice)” value is 0/10 and the “ILS% (Increase in life span)” value was 67%. Also, the “toxicity (in words)” value under setting [3] is “without toxicity”. Moreover, the “toxicity (in words)” value under setting [4] is recorded as “without toxicity”.
Consider `COc1cccc2c1C(=O)c1c(O)c3c(c(O)c1C2=O)C[C@@](O)(C(=O)CO)C[C@@H]3O[C@H]1C[C@H](N)[C@H](O)[C@H](C)O1` [Doxorubicin, doxorubicin], for which, under setting [2], the “LTS” value is on record as 0/10, the “Tox (Number of toxic deaths/number of mice)” value is 0/10 and the “ILS% (Increase in life span)” value came to 50%. Besides, under setting [3], the “toxicity (in words)” value was “without toxicity”.
Regarding `COc1cc([C@@H]2c3cc4c(cc3[C@@H](O[C@@H]3O[C@@H]5CO[C@@H](C)O[C@H]5[C@H](O)[C@H]3O)[C@H]3COC(=O)[C@H]23)OCO4)cc(OC)c1O` [Etoposide, etoposide], under setting [1], the “LTS” value is on record as 0/10, the “Tox (Number of toxic deaths/number of mice)” value is listed as 0/10 and the “ILS% (Increase in life span)” value was 100%. Besides, the “toxicity (in words)” value under setting [4] is on record as “without toxicity”.
